Measured values reported in patent US12291514B1, “Ethyl 2-[9-(2-hydroxypyridin-3-yl)-3,6-diphenyl-1,8-dioxo-3,4,9,10-tetrahydroacridine-10-yl]-acetate as an antimicrobial compound” (KING FAISAL UNIVERSITY, priority 2023, dated 2025).

What was measured:
Assay type in all cases: cell-based
Conditions in all cases: after 10, 20, 40 and 60 minutes at all dilutions 1:100, 1:200, 1:400, 1:800
Staphylococcus aureus = assay: Antimicrobial screening by agar dilution, St. Aereus
Method: (§1) The antibacterial properties of the synthesized compound, ethyl 2-[9-(2-hydroxypyridin-3-yl)-3,6-diphenyl-1,8-dioxo-3,4,9,10-tetrahydroacridine-10-yl]-acetate, were studied by the method of agar dilution. Test solutions of each compound was prepared in concentration of 1% using dimethylformamide as a solvent then they are diluted in physiological solution to obtain the final experimental dilutions 1:100, 1:200, 1:400, 1:800. The effect of these substances are compared with furacillin in a controllable study. The testing microbes used were gram positive bacteria Staphylococcus aureus, gram negative bacteria Pseudomonas aeruginosa and Escherichia coli and Candida albicans fungus. The experiments used for this survey were meat-pentonlu agar (EPA) for cultivation of bacteria and Saburo environment for the fungus. Each experiment used 1 mL of test solution on each plate […]. Two drops of emulsified with microbes feel were added. All experimental samples were taken from the agar after 10, 20, 40, 60 minutes in the environment on the basis of Patrk planted. The bacteria were cultivated at a temperature of 37° C. for 1 day and the mushroom was kept in a thermostat for 2 hours at a temperature of 28° C. Then results were checked.

Escherichia coli = assay: Antimicrobial screening by agar dilution, E. Coli
Method: as §1

Pseudomonas aeruginosa = assay: Antimicrobial screening by agar dilution, Ps. aeruginosa
Method: as §1

Candida albicans = assay: Antimicrobial screening by agar dilution, Candida albicans
Method: as §1

Measured: inhibition activity (in words)

CCOC(=O)CN1C2=C(C(=O)CC(c3ccccc3)C2)C(c2cccnc2O)C2=C1CC(c1ccccc1)CC2=O (stereo not shown) [ethyl 2-[9-(2-hydroxypyridin-3-yl)-3,6-diphenyl-1,8-dioxo-3,4,9,10-tetrahydroacridine-10-yl]-acetate]
highest inhibition activity: all assays above
